Assay results taken from patent US20090233966A1, “Analogues of the Azinomycins as Anti-Tumour Agents and as Prodrugs” (School of Pharmacy, University of London, priority 2005, published 2009).
Where two headings read alike, the source gives them in different places.

Columns and labels:
[1] = system: linear double stranded plasmid pUC18 DNA; assay: DNA crosslinking; format: biochemical; conditions: for EC50: read-out: CR50 (concentration at which 50% of the duplex is crosslinked)
Experimental: Plasmid DNA pUC 18 was linearised by digestion with Hind III. The linear DNA was then dephosphorylated with BAP and ^32P-radiolabelled on the 5′-end. The DNA was then purified by EtOH precipitation to remove unincorporated γ-^32P ATP and the DNA resuspended in sterile double distilled H2O. To each reaction sample was added ^32P-end labelled DNA and drug at the appropriate concentration. Following incubation at 37° C. for the required time, the reaction was terminated by the addition of Stop Solution Buffer. The DNA-drug adduct was EtOH precipitated and dried by lyophilisation. Each dried DNA sample including an untreated DNA single strand as a control was denatured by resuspending in alkali denaturing buffer. The double stranded control DNA was then dissolved in sucrose loading buffer and the samples loaded and electrophoresed on a 20 cm long 0.8% horizontal agarose gel submerged in 1×TAE buffer at 40 V for 16 h. Gels were then dried and autoradiographed
Compound 20 which consists of both the epoxide and mustard functionality was tested at concentrations between 0.1 and 50 μM at 1 h, 2 h and 3 h intervals. […] Crosslink formation starts at concentrations as low as 0.1 μM and reaches 100% crosslinking at −10 μM. After incubation for an hour the CR50 (concentration at which 50% of the duplex is crosslinked) was determined to be 3.1 μM. The percentage of crosslinked DNA was determined from autoradiograph densitometry.

A549/ATCC = assay: NCI 60 cell panel growth inhibition; format: cell-based, human; conditions: NSCLC, read-out: anti-tumour activity GI50
Excerpt: (§1) Examples 6 and 7 make use of the NCl 60 cell panel. This is an in vitro cell line screening project providing direct support to the National Cancer Institute's USA Developmental Therapeutic Programme for anti cancer discovery. The methodolgy for the cell line's operation is described by Boyd et al in Drug Development Research 1995, 34, 91-109.

COLO 205 = assay: NCI 60 cell panel growth inhibition; format: cell-based, human; conditions: COLON, read-out: anti-tumour activity GI50
Excerpt: as §1

HT29 = assay: NCI 60 cell panel growth inhibition; format: cell-based, human; conditions: read-out: anti-tumour activity GI50
Excerpt: as §1

KM12 = assay: NCI 60 cell panel growth inhibition; format: cell-based, human; conditions: COLON, read-out: anti-tumour activity GI50
Excerpt: as §1

LOX IMVI = assay: NCI 60 cell panel growth inhibition; format: cell-based, human; conditions: MELAN, read-out: anti-tumour activity GI50
Excerpt: as §1

MALME-3M = assay: NCI 60 cell panel growth inhibition; format: cell-based, human; conditions: MELAN, read-out: anti-tumour activity GI50
Excerpt: as §1

SF-295 = assay: NCI 60 cell panel growth inhibition; format: cell-based, human; conditions: CNS, read-out: anti-tumour activity GI50
Excerpt: as §1

SW-620 = assay: NCI 60 cell panel growth inhibition; format: cell-based, human; conditions: COLON, read-out: anti-tumour activity GI50
Excerpt: as §1

HCT-15 = assay: NCI 60 cell panel growth inhibition; format: cell-based; conditions: Homo sapiens, COLON, read-out: anti-tumour activity GI50
Excerpt: as §1

SNB-75 = assay: NCI 60 cell panel growth inhibition; format: cell-based; conditions: Homo sapiens, CNS, read-out: anti-tumour activity GI50
Excerpt: as §1

For `COc1cc(C(=O)OC(C(=O)NCCN2CCCC(Cl)C2)C2(C)CO2)c2cccc(C)c2c1` (stereo not shown) [Compound 20], the “concentration at which crosslink formation starts” value ([1]; 1 h incubation) was 0.1 µM, the EC50 ([1]; 1 h incubation, 37° C.) was 3.1 µM and the EC50 ([1]; 2 h incubation) was 2.7 µM. For the same molecule, the EC50 ([1]; 3 h incubation) was 2.2 µM, the GI50 (A549/ATCC) was 31.1 µM and the GI50 (COLO 205) was 13.8 µM. For the same molecule, the GI50 (HT29; COLON) was 11 µM, the GI50 (KM12) was 14.5 µM and the GI50 (LOX IMVI) was 3.62 µM. The GI50 (MALME-3M) was 14.8 µM, the GI50 (SF-295) was 13.1 µM and the GI50 (SW-620) was 5.26 µM.
Work on `C=C(C)[C@H](OC(=O)c1cc(OC)cc2c(C)cccc12)C(=O)NCCN1CCCC(Cl)C1` (stereo partly shown) [Compound 21] yielded a GI50 (A549/ATCC; Homo sapiens) of 8.26 µM, a GI50 (COLO 205; Homo sapiens) of 6.08 µM and a GI50 (HT29; Homo sapiens, HT-29, COLON) of 7.26 µM. The GI50 (KM12; Homo sapiens) was 9.3 µM, the GI50 (LOX IMVI; Homo sapiens) was 2.84 µM and the GI50 (MALME-3M; Homo sapiens) was 7.51 µM. For the same molecule, the GI50 (SF-295; Homo sapiens) was 4.35 µM, the GI50 (SW-620; Homo sapiens) was 2.76 µM and the GI50 (HCT-15) was 0.049 µM. It also gave a GI50 (SNB-75) of 1.2 µM.
